Test results taken from patent US8163509B2, “Biological markers predictive of anti-cancer response to insulin-like growth factor-1 receptor kinase inhibitors” (The Regents of the University of Colorado, A Body Corporate, priority 2008, dated 2012).

What was measured:
[1] = target: T1, IGF1R (Homo sapiens, UniProt P08069); assay: Meso Scale Discovery (MSD) assay of phosphorylated IGF1R; type: cell-based; settings: HT29 and HCT116, 72 h
T1 construct: endogenous in cells; host or cells: HT29 and HCT116 CRC cell lines
Protocol: Detection of IGF1R using Meso Scale Discovery assays (MSD): HT29 and HCT116 CRC cell lines were seeded into 6-well plates, allowed to attach for 24 hours and exposed to PQIP and chemotherapy (SN38, or Oxaliplatin) alone or in combination for 72 h. Following exposure, cells were rinsed with PBS and scraped into RIPA lysis buffer containing protease inhibitors, EDTA, NaF, and sodium orthovanadate. Total protein was quantified using the BioRad Dc Protein Assay (BioRad, Hercules, Calif.). Fifty micrograms of protein in 25 μL was added per well for MSD detection of phosphorylated IGF-1R according to manufacturer's instructions (Meso Scale Discovery, Gaithersburg, Md.).
Cells were exposed to PQIP (0.4 μmol/L) and chemotherapy (SN38 0.004 μmol/L, or Oxaliplatin 1.0 μmol/L) alone or in combination for 72 h. Protein was extracted and analyzed for phospho/total IGF1R levels using a Meso Scale Discovery (MSD; Gaithersburg, Md. 20877) assay.

[2] = test system: S6 ribosomal protein; assay: Immunoblotting, pathway activation; type: cell-based, human; settings: PQIP 0.4 μmol/L 3 h, with or without IGF-2 stimulation
Protocol: (§1) Immunoprecipitation and Immunoblotting: HT29 and HCT116 CRC cell lines were seeded into 6-well plates, allowed to attach for 24 hours and serum starved overnight. Cells were then exposed to IGF-2 (100 ng/mL) for 10 minutes with or without a 3 hour PQIP (0.4 μmol/L) pretreatment. After treatment cells were rinsed with PBS and scraped into RIPA lysis buffer containing protease inhibitors, EDTA, NaF, and sodium orthovanadate. Total protein was quantified using the BioRad Dc Protein Assay (BioRad, Hercules, Calif.). Total protein (30 μg) was electrophoresed on a 4-20% gradient SDS-polyacrylimide gel then electrophoretically transferred to Immobilon-P (Millipore, Bedford, Mass.). Membranes were blocked for 1 hour in 5% non-fat dry milk (BioRad, Hercules, Calif.) in TBS-Tween (0.1%) prior to overnight incubation at 4° C. with the appropriate primary antibody. Blots were then washed 3×20 minutes in TBS-Tween (0.1%) and were incubated with the appropriate secondary anti-rabbit or anti-mouse IgG1 horseradish peroxidase-linked antibody at 1:20,000 (Jackson ImmunoResearch, West Grove, Pa.) for one hour at room temperature. After three additional washes, the blots were developed by Immobilon Western Chemiluminescent HRP substrate (Millipore, Billerica, Mass.). Anti-IGF1Rβ rabbit polyclonal (Cell Signaling Technology, Danvers, Mass.) was used for immunoprecipitation at a 1:50 dilution. The following primary antibodies were used for immunoblotting (all from Cell Signaling Technology, Danvers, Mass.). Anti-phosphorylated Akt (T308) rabbit polyclonal, anti-phosphorylated S6 ribosomal protein (S235/236) rabbit mAb, anti-phosphorylated p44/42 MAPK (Thr202/Tyr204) rabbit mAb, and anti-phosphorylated tyrosine mouse mAb at 1:1.000. Anti-Akt (pan) rabbit mAb, anti-S6 ribosomal protein rabbit mAb, anti-p44/42 MAP Kinase rabbit mAb, anti Pan-Actin rabbit polyclonal, anti-IGF1Rβ rabbit polyclonal, anti-PARP rabbit polyclonal, and anti-cyclin D1 rabbit polyclonal at 1:5000.
(§2) Effect of PQIP on receptor phosphorylation and pathway activation: Since PQIP is expected to inhibit autophosphorylation of IGF1R, we tested its ability to inhibit IGF-2 mediated activation of the receptor and pathway. One PQIP sensitive and one PQIP resistant CRC cell line were chosen for immunoprecipitation and immunoblotting analysis. Following 18 h serum starvation, HT29 and HCT116 CRC cell lines were stimulated or unstimulated for 10 minutes with 100 ng/mL of IGF-2 with or without a 3 h pre-exposure to PQIP (0.4 μmol/L).

[3] = test system: p42/44 MAPK; assay: Immunoblotting, pathway activation; type: cell-based, human; settings: PQIP 0.4 μmol/L 3 h pre-exposure, IGF-2 100 ng/mL 10 minutes
Protocol: as §1, §2

[4] = test system: Akt; assay: Immunoblotting, pathway activation; type: cell-based, human; settings: PQIP 0.4 μmol/L 3 h, with or without IGF-2 stimulation
Protocol: as §1, §2

[5] = target: T1, IGF1R; assay: Immunoprecipitation and immunoblotting, IGF-2 induced receptor autophosphorylation; type: cell-based; settings: PQIP 0.4 μmol/L 3 h pre-exposure, IGF-2 100 ng/mL 10 minutes
Text: Total protein was quantified using the BioRad Dc Protein Assay (BioRad, Hercules, Calif.).

T1 sequence (P08069 31-1367): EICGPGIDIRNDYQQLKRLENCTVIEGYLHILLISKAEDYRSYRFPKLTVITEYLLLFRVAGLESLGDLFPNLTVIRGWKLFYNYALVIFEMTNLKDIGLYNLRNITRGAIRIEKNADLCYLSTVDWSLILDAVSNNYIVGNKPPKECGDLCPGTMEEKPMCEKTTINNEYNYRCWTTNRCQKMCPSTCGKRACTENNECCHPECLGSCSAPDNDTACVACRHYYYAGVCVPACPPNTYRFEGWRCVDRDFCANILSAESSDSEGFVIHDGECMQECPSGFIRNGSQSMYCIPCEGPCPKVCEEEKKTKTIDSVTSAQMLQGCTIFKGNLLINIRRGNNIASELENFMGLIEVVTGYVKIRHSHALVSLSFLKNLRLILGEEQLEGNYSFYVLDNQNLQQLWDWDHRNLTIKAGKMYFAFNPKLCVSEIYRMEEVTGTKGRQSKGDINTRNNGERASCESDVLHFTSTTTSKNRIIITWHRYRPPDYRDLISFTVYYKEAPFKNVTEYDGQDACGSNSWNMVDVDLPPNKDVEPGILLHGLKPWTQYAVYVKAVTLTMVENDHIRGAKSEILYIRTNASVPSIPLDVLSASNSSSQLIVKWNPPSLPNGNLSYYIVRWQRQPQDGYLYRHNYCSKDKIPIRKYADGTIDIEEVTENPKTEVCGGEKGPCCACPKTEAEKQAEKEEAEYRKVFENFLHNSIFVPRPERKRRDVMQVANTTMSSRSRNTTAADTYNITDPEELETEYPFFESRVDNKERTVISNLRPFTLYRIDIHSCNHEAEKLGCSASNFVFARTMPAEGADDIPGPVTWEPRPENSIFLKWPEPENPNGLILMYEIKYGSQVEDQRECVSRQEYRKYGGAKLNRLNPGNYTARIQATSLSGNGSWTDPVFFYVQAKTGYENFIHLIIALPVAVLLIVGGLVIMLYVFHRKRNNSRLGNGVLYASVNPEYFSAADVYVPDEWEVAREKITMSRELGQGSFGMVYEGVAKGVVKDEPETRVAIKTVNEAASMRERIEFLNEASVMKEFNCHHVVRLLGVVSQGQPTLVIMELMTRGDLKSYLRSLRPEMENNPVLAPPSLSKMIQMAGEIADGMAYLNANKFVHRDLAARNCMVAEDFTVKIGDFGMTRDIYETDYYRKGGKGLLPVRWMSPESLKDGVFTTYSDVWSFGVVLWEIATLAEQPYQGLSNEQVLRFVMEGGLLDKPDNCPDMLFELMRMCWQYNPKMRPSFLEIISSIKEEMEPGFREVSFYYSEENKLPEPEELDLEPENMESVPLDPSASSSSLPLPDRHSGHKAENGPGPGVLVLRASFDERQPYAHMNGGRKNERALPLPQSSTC

CN1CCN([C@H]2C[C@@H](c3nc(-c4ccc5ccc(-c6ccccc6)nc5c4)c4c(N)nccn43)C2)CC1 [PQIP, cis-3-[3-(4-Methyl-piperazin-1-yl)-cyclobutyl]1-(2-phenyl-quinolin-7-yl)-imidazo[1,5-a]pyrazin-8-ylamine]
effect on phosphorylated IGF1R, PQIP in combination with SN38 or Oxaliplatin ([1]; PQIP 0.4 μmol/L plus SN38 0.004 μmol/L or Oxaliplatin 1.0 μmol/L): inhibited | effect on phosphorylated IGF1R, agent alone ([1]; PQIP 0.4 μmol/L, SN38 0.004 μmol/L, Oxaliplatin 1.0 μmol/L): inhibited | phosphorylation of S6 ribosomal protein ([2]; HCT116): inhibits | phosphorylation of S6 ribosomal protein ([2]; HT29): inhibits | IGF-2 induced phosphorylation of p42/44 MAPK ([3]; HCT116): not in resistant HCT116 | IGF-2 induced phosphorylation of p42/44 MAPK ([3]; HT29): inhibited | phosphorylation of Akt ([4]; HCT116): inhibits | phosphorylation of Akt ([4]; HT29): inhibits | IGF-2 induced tyrosine autophosphorylation of IGF1R ([5]; HCT116): almost fully inhibits | IGF-2 induced tyrosine autophosphorylation of IGF1R ([5]; HT29): almost fully inhibits
